Read-outs that look alike come from different tables or passages of the source.
How the values were obtained:
K. pneumoniae 848844 = test: microbe, parasite or virus in culture; format: cell-based, Klebsiella pneumoniae; conditions: Klebsiella pneumoniae; K. pneumoniae 848844 producing SHV-11 and KPC-2; read-out: MIC K. pneumoniae 848844
Summary of the method: (§1)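 Following CLSI guidance, growth inhibition is measured in Mueller-Hinton broth with divalent cations. Inoculum 5×10^5 CFU/mL; incubation 16-20 hours, 37° C; endpoint is visual absence of growth.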

P. aeruginosa ATCC 27853 = test: Broth microdilution MIC, P. aeruginosa ATCC 27853; format: cell-based; conditions: Pseudomonas aeruginosa
Protocol: To determine the ability of test compounds to potentiate the inhibition of the growth of bacterial strains, classic cell based broth microdilution minimum inhibitory concentration (MIC) assays were employed. MIC assays are performed according to CLSI methods except where otherwise noted (CLSI, 2011 and CLSI, 2009). The reference type strain E. coli ATCC 25922, the wild-type parent strain E. coli AG100, the hyper-permeable E. coli 901C and E. coli D22 and the E. coli AG100A strain lacking the acrAB efflux pump encoding genes were used to determine the ability of the PBP inhibitors to penetrate the outer membrane of gram-negative bacteria and inhibit bacterial growth. […] The P. aeruginosa PAO1, P. aeruginosa ATCC 27853 and A. baumannii ATCC 19606, along with the hyper-permeable P. aeruginosa ATCC 35151 and an engineered efflux pump-compromised strain of P. aeruginosa (ΔmexAB-oprM) were used to determine the ability of PBP inhibitors to penetrate the outer membrane of P. aeruginosa and A. baumannii and assess antibacterial activity against these important gram-negative organisms.
Briefly, cryo-preserved bacterial cultures of challenge strains are streaked for isolation on appropriate agar medium, in this case Mueller Hinton II agar. Following incubation to allow growth of the colonies, plates are sealed with parafilm and stored refrigerated for up to two weeks. For preparation of assay inoculum and to ensure low variability, at least 5 colonies are picked from the agar plates with an inoculating loop and aseptically transferred to a culture tube containing 3 mL of Mueller-Hinton Broth (supplemented with divalent cations to required levels based on Manufacturers' certification). The broth culture is grown for 3-5 hours at 37° C. with shaking at 200 rpm. Meanwhile, 2-fold serial dilutions of test compounds are conducted in a 96 well plate with a final volume of 75 μL per well at 2-fold the final desired concentration. After the dilution plates are set up the growing cultures are then diluted in a cuvette containing MH II broth and the optical density is measured at 600 nm. The Inoculum is diluted such that 75 μL of this culture in Mueller-Hinton Broth results in a starting bacterial concentration of 5×10^5 CFU/mL when added to the dilution plates. The plates are incubated for 16-20 hours at 37° C. The MIC values are read visually as the lowest concentration well with no bacterial growth.

E. coli AG100A = test: microbe, parasite or virus in culture; format: cell-based; conditions: Escherichia coli, read-out: MIC E. coli AG100A
Summary of the method: as §1

E. coli D22 = test: microbe, parasite or virus in culture; format: cell-based; conditions: Escherichia coli; hyper-permeable E. coli D22, broth microdilution; read-out: MIC E. coli D22
Summary of the method: as §1

P. aeruginosa ATCC 35151 = test: microbe, parasite or virus in culture; format: cell-based; conditions: Pseudomonas aeruginosa, ATCC35151; hyper-permeable P. aeruginosa ATCC 35151; read-out: MIC P. aeruginosa ATCC 35151
Summary of the method: as §1

[1] = test system: P. aeruginosa (ΔmexAB-oprM); test: microbe, parasite or virus in culture; format: cell-based; conditions: Pseudomonas aeruginosa, read-out: MIC P. aeruginosa ΔmexAB-OprM
Summary of the method: as §1

K. pneumoniae SI-117 = test: microbe, parasite or virus in culture; format: cell-based; conditions: Klebsiella pneumoniae, SI117, read-out: MIC K. pneumoniae SI-117
Summary of the method: as §1

K. pneumoniae UMM = test: microbe, parasite or virus in culture; format: cell-based; conditions: Klebsiella pneumoniae; K. pneumoniae UMM producing SHV-5 and KPC-2; read-out: MIC K. pneumoniae UMM
Summary of the method: as §1

E. coli 901C = test: microbe, parasite or virus in culture; format: cell-based; conditions: Escherichia coli; hyper-permeable E. coli 901C, broth microdilution; read-out: MIC E. coli 901C
Summary of the method: as §1

E. coli AG100 = test: Broth microdilution MIC, E. coli AG100 (wild-type parent); format: cell-based; conditions: Escherichia coli; wild-type parent E. coli AG100, broth microdilution; read-out: MIC E. coli AG100
Summary of the method: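 Starting inoculum of 5×10^5 CFU/mL, from colonies grown 3-5 h in Mueller-Hinton broth with divalent cations, added to two-fold compound dilution series.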

E. coli ATCC 25922 = test: Broth microdilution MIC, E. coli ATCC 25922; format: cell-based; conditions: Escherichia coli
Summary of the method: as §1

A. baumannii ATCC 19606 = test: Broth microdilution MIC, A. baumannii ATCC 19606; format: cell-based; conditions: Acinetobacter baumannii
Summary of the method: as §1

E. coli PBP3 = E. coli PBP3 (Escherichia coli (strain K12), UniProt P0AD68); test: E. coli PBP3 Bocillin-FL fluorescence polarization competition binding assay
Sequence of E. coli PBP3 (P0AD68 whole entry): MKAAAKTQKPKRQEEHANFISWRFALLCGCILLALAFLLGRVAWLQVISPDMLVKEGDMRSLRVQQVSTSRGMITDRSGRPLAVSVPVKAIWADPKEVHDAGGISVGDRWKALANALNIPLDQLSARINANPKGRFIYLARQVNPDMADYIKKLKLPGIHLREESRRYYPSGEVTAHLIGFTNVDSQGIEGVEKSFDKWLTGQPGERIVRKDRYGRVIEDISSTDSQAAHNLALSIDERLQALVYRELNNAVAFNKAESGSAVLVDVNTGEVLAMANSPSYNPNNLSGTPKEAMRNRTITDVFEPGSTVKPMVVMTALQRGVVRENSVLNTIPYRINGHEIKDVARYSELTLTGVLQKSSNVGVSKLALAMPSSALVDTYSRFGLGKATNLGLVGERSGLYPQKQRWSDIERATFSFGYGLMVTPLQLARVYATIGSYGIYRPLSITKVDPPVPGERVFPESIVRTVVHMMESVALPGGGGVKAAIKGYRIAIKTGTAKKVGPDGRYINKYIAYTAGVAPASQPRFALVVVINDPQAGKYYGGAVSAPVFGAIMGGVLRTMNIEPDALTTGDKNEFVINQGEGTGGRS
Summary of the method: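 Polarization at 490/520 nm was monitored for 60 minutes in pH 8.0 Hepes buffer containing 300 mM NaCl and 5% glycerol, with compound spanning 0–1000 μM.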

[2] = ATCC27853, read-out: MIC P. aeruginosa ATCC 27853
[3] = ATCC25922, read-out: MIC E. coli 25922
[4] = ATCC19606, read-out: MIC A. baumannii ATCC 19606
[5] = ATCC27853, P. aeruginosa ATCC 27853, broth microdilution, read-out: MIC P. aeruginosa ATCC 27853
[6] = ATCC25922, E. coli ATCC 25922, broth microdilution, read-out: MIC E. coli 25922
[7] = ATCC19606, A. baumannii ATCC 19606, broth microdilution, read-out: MIC A. baumannii ATCC 19606

SMILES	MIC (K. pneumoniae 848844)	MIC (P. aeruginosa ATCC 27853; [2])	MIC (E. coli AG100A)	MIC (E. coli D22)	MIC (P. aeruginosa ATCC 35151)	MIC [1]	MIC (K. pneumoniae SI-117)	MIC (K. pneumoniae UMM)	MIC (E. coli 901C)	MIC (E. coli AG100)	MIC (E. coli ATCC 25922; [3])	MIC (A. baumannii ATCC 19606; [4])	MIC (P. aeruginosa ATCC 27853; [5])	EC50 (E. coli PBP3)	MIC (E. coli ATCC 25922; [6])	MIC (A. baumannii ATCC 19606; [7])	EC50 (E. coli PBP3; fluorescence polarization competition binding with Bocillin-FL, read-out: E. coli K12 PBP3 Potency)
CCN1CCN(C(=O)N[C@@H](C(=O)N[C@H]2Cc3ccc(F)c(C(=O)O)c3OB2O)c2c(F)cc(O)c(O)c2Cl)C(=O)C1=O [Example 251, (R)-3-((R)-2-(2-chloro-6-fluoro-3,4-dihydroxyphenyl)-2-(4-ethyl-2,3-dioxopiperazine-1-carboxamido)acetamido)-7-fluoro-2-hydroxy-3,4-dihydro-2H-benzo[e][1,2]oxaborinine-8-carboxylic acid]	2 to 4 µg/mL	0.5 to 1 µg/mL	0.5 to 1 µg/mL	0.5 to 1 µg/mL	< 0.25 µg/mL	< 0.25 µg/mL	2 to 4 µg/mL	0.5 to 1 µg/mL	0.5 to 1 µg/mL	0.5 to 1 µg/mL	2 to 4 µg/mL	0.5 to 1 µg/mL	–	–	–	–	–
C[C@H]1CN(CCN)C(=O)C(=O)N1C(=O)N[C@@H](C(=O)N[C@H]1Cc2ccc(F)c(C(=O)O)c2OB1O)c1ccc(O)c(O)c1Cl [Example 250, (R)-3-((R)-2-((S)-4-(2-aminoethyl)-6-methyl-2,3-dioxopiperazine-1-carboxamido)-2-(2-chloro-3,4-dihydroxyphenyl)acetamido)-7-fluoro-2-hydroxy-3,4-dihydro-2H-benzo[e][1,2]oxaborinine-8-carboxylic acid]	0.5 to 1 µg/mL	0.5 to 1 µg/mL	0.5 to 1 µg/mL	0.5 to 1 µg/mL	< 0.25 µg/mL	< 0.25 µg/mL	2 to 4 µg/mL	0.5 to 1 µg/mL	0.5 to 1 µg/mL	0.5 to 1 µg/mL	2 to 4 µg/mL	< 0.25 µg/mL	–	–	–	–	–
C[C@H]1CN(CCN)C(=O)C(=O)N1C(=O)NC(C(=O)N[C@H]1Cc2cccc(C(=O)O)c2OB1O)c1ccc(O)c(O)c1Cl (stereo partly drawn) [Example 248, (3R)-3-(2-((S)-4-(2-aminoethyl)-6-methyl-2,3-dioxopiperazine-1-carboxamido)-2-(2-chloro-3,4-dihydroxyphenyl)acetamido)-2-hydroxy-3,4-dihydro-2H-benzo[e][1,2]oxaborinine-8-carboxylic acid]	2 to 4 µg/mL	32 to 64 µg/mL	0.5 to 1 µg/mL	2 to 4 µg/mL	< 0.25 µg/mL	< 0.25 µg/mL	2 to 4 µg/mL	2 to 4 µg/mL	0.5 to 1 µg/mL	2 to 4 µg/mL	8 to 16 µg/mL	0.5 to 1 µg/mL	–	–	–	–	–
O=C(O)CN1CCN(C(=O)NC(C(=O)N[C@H]2Cc3cccc(C(=O)O)c3OB2O)c2ccc(O)c(O)c2Cl)C(=O)C1=O (stereo partly drawn) [Example 249, (3R)-3-(2-(4-(carboxymethyl)-2,3-dioxopiperazine-1-carboxamido)-2-(2-chloro-3,4-dihydroxyphenyl)acetamido)-2-hydroxy-3,4-dihydro-2H-benzo[e][1,2]oxaborinine-8-carboxylic acid]	2 to 4 µg/mL	0.5 to 1 µg/mL	8 to 16 µg/mL	8 to 16 µg/mL	< 0.25 µg/mL	< 0.25 µg/mL	8 to 16 µg/mL	8 to 16 µg/mL	2 to 4 µg/mL	8 to 16 µg/mL	32 to 64 µg/mL	0.5 to 1 µg/mL	–	–	–	–	–
NS(=O)(=O)NCCN1CCN(C(=O)NC(C(=O)N[C@H]2Cc3ccc(F)c(C(=O)O)c3OB2O)c2ccc(O)c(O)c2Cl)C(=O)C1=O (stereo partly drawn) [Example 244, (3R)-3-(2-(2-chloro-3,4-dihydroxyphenyl)-2-(2,3-dioxo-4-(2-(sulfamoylamino)ethyl)piperazine-1-carboxamido)acetamido)-7-fluoro-2-hydroxy-3,4-dihydro-2H-benzo[e][1,2]oxaborinine-8-carboxylic acid]	2 to 4 µg/mL	< 0.25 µg/mL	0.5 to 1 µg/mL	0.5 to 1 µg/mL	< 0.25 µg/mL	< 0.25 µg/mL	2 to 4 µg/mL	0.5 to 1 µg/mL	0.5 to 1 µg/mL	2 to 4 µg/mL	8 to 16 µg/mL	< 0.25 µg/mL	–	–	–	–	–
CCN1CCN(C(=O)NC(C(=O)N[C@H]2Cc3cccc(C(=O)O)c3OB2O)c2ncc(C(N)=O)cc2F)C(=O)C1=O (stereo partly drawn) [Example 246, (3R)-3-(2-(5-carbamoyl-3-fluoropyridin-2-yl)-2-(4-ethyl-2,3-dioxopiperazine-1-carboxamido)acetamido)-2-hydroxy-3,4-dihydro-2H-benzo[e][1,2]oxaborinine-8-carboxylic acid]	–	–	32 to 64 µg/mL	32 to 64 µg/mL	2 to 4 µg/mL	32 to 64 µg/mL	> 128 µg/mL	> 128 µg/mL	2 to 4 µg/mL	> 128 µg/mL	–	–	> 128 µg/mL	30 to 500 µM	> 128 µg/mL	> 128 µg/mL	–
CCN1CCN(C(=O)NC(C(=O)N[C@H]2Cc3cccc(C(=O)O)c3OB2O)c2ccc(O)c([N+](=O)[O-])c2)C(=O)C1=O (stereo partly drawn) [Example 247, (3R)-3-(2-(4-ethyl-2,3-dioxopiperazine-1-carboxamido)-2-(4-hydroxy-3-nitrophenyl)acetamido)-2-hydroxy-3,4-dihydro-2H-benzo[e][1,2]oxaborinine-8-carboxylic acid]	–	–	2 to 4 µg/mL	2 to 4 µg/mL	0.5 to 1 µg/mL	8 to 16 µg/mL	> 128 µg/mL	> 128 µg/mL	< 0.25 µg/mL	32 to 64 µg/mL	–	–	> 128 µg/mL	–	32 to 64 µg/mL	> 128 µg/mL	< 30 µM
